Measured values taken from patent publication US11905272B1, “3-(2-(4-methoxypyridin-3-yl)-4,5-diphenyl-1H-imidazol-1-yl)-N,N-dimethylpropan-1-amine as an anti-cancer compound” (KING FAISAL UNIVERSITY, priority 2023, dated 2024).

Key:
[1] = test system: human prostate cancer cells (PC3); assay: Assessment of cytotoxicity by SRB assay (PC3); assay type: cell-based; conditions: 0.01 μM to 100 μM, 72 h
Method: (§1) The human prostate cancer cells (PC3) and human osteosarcoma cells (MG-63) were obtained from Nawah Scientific Inc. (Mokatam, Cairo, Egypt) and cultured in DMEM (Dulbecco's modified eagle's medium), Gibco, USA, supplemented with fetal bovine serum (FBS) at a concentration of 10% and 100 U/mL of penicillin and streptomycin (PS). The Cells were incubated at 37° C. in a humidified environment that contained 5% CO2.
(§2) Cells were seeded in 96-well plates as aliquots of 100 μL cell suspension and incubated in a complete media for 24 h. Afterward, cells were treated with 3-(2-(4-methoxypyridin-3-yl)-4,5-diphenyl-1H-imidazol-1-yl)-N,N-dimethylpropan-1-amine at diverse concentrations ranging from 0.01 μM to 100 μM for 72 h. Then, cells were fixed at 4° C. for one hour with 150 μL of 10% trichloroacetic acid (TCA). After washing the cells five times with distilled water, 70 μL of sulforhodamine (SRB) solution (0.4% w/v) was added and incubated for 10 min at room temperature in a dark place. […] Then, 150 μL of Tris pH 10.5 (10 mM) was added, and the absorbance was measured at 540 nm using a BMG LABTECH®-FLUOstar Omega microplate reader (Ortenberg, Germany). Half maximal inhibitory concentrations (IC50) values were calculated for each experiment using GraphPad Prism 6 software. […]
(§3) The inhibition was calculated using the following equation: Inhibition %=100−Average Viability

[2] = test system: human osteosarcoma cells (MG-63); assay: Assessment of cytotoxicity by SRB assay (MG-63); assay type: cell-based; conditions: 0.01 μM to 100 μM, 72 h
Method: as §1, §2, §3

SMILES: COc1ccncc1-c1nc(-c2ccccc2)c(-c2ccccc2)n1CCCN(C)C [3-(2-(4-methoxypyridin-3-yl)-4,5-diphenyl-1H-imidazol-1-yl)-N,N-dimethylpropan-1-amine]
- antiproliferative activity against cancer cells (PC3) [1]: excellent antiproliferative activities
- antiproliferative activity against osteosarcoma (MG-63) cells [2]: excellent antiproliferative activities
- melting point: 128 to 131 °C
